# Columns and labels:
# [1] = biological target: T1, recombinant human ALK5 (TGF-βR1) protein (Homo sapiens, UniProt P36897); assay: Biochemical ALK5 (TGF-βR1) assay to measure pKi (LANCE Ultra ULight kinase assay); details: apparent pKi from pIC50 by Cheng-Prusoff, read-out: ALK5 pKi (converted)
# T1 construct: purchased Life Technologies PR9075A
# T1 sequence (P36897 34-503): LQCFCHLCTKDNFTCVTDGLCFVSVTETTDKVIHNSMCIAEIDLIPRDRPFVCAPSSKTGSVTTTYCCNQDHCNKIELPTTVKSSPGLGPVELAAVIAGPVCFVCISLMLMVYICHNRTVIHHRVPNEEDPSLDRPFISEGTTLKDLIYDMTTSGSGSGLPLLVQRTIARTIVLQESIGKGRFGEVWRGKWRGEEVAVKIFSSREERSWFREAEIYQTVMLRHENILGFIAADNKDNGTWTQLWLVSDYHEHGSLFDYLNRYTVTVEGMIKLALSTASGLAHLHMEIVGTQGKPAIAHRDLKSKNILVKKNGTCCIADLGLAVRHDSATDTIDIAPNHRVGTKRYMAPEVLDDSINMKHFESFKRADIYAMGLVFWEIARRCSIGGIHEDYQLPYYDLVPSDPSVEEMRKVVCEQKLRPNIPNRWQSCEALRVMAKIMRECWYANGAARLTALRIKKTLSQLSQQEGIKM
# Summary of the method: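 Compounds (10 μM to 25 pM) preincubated 60 minutes at room temperature with enzyme, then reaction run 60 minutes at 37° C with ATP added as 125 μM (5× final). Stopped with EDTA plus Eu-anti-phospho-Topoisomerase 2-alpha (Thr1342) antibody, TR-FRET read at 665 nm; pIC50 converted to pKi via Cheng-Prusoff.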
# [2] = system: TGF-β-stimulated SMAD3 phosphorylation in BEAS-2B cells; assay: Cellular ALK5 potency assay, inhibition of TGF-β stimulated pSMAD3 formation in BEAS-2B cells; format: cell-based; details: Homo sapiens; inhibition of TGF-β stimulated pSMAD3 formation, BEAS-2B cells; read-out: BEAS2B pIC50 (converted)
# Summary of the method: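 SMAD3 phosphorylation was measured by AlphaLISA after 30 min TGF-β stimulation (10 ng/mL final) of BEAS-2B cells preincubated 1 h with compound at 37 °C. Results given as pIC50.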
SMILES,Ki [1],IC50 [2]
"Cc1cccc(-c2n[nH]cc2-c2ccc3ncc(-c4cnn(CCN(C)C)c4)cc3n2)n1 [Compound 221, N,N-dimethyl-2-[4-[6-[3-(6-methyl-2-pyridyl)-1H-pyrazol-4-yl]-1,5-naphthyridin-3-yl]pyrazol-1-yl]ethanamine]",< 0.0316 nM,25.1 to 158 nM
"Cc1cccc(-c2[nH]cnc2-c2ccc3ncc(-c4cnc5c(c4)CCC5N)cc3c2)n1 (stereo not shown) [Compound 734, 3-[6-[5-(6-methyl-2-pyridyl)-1H-imidazol-4-yl]-3-quinolyl]-6,7-dihydro-5H-cyclopenta[b]pyridin-7-amine]",0.0398 to 0.316 nM,25.1 to 158 nM
"Cc1cccc(-c2[nH]cnc2-c2ccc3ncc(Nc4nc5n(n4)CCN(C(C)C)C5)cc3c2)n1 [Compound 128, N-(7-isopropyl-6,8-dihydro-5H-[1,2,4]triazolo[1,5-a]pyrazin-2-yl)-6-[5-(6-methyl-2-pyridyl)-1H-imidazol-4-yl]quinolin-3-amine]",0.0398 to 0.316 nM,25.1 to 158 nM
"Cc1cccc(-c2n[nH]cc2-c2ccc3ncc(-c4[nH]nc5c4CCNC5)cc3n2)n1 [Compound 622, 2-[3-(6-methyl-2-pyridyl)-1H-pyrazol-4-yl]-7-(4,5,6,7-tetrahydro-2H-pyrazolo[3,4-c]pyridin-3-yl)-1,5-naphthyridine]",0.0398 to 0.316 nM,200 to 1260 nM
"Cc1cccc(-c2[nH]cnc2-c2ccc3ncc(C(=O)OCCCN4CCNCC4)cc3c2)n1 [Compound 897, 3-(piperazin-1-yl)propyl 6-(5-(6-methylpyridin-2-yl)-1H-imidazol-4-yl)quinoline-3-carboxylate]",0.0398 to 0.316 nM,25.1 to 158 nM
"Cc1cccc(-c2n[nH]cc2-c2ccc3ncc(-c4cn[nH]c4)cc3n2)n1 [Compound 233, 2-[3-(6-methyl-2-pyridyl)-1H-pyrazol-4-yl]-7-(1H-pyrazol-4-yl)-1,5-naphthyridine]",< 0.0316 nM,< 20 nM
"CNCCn1cc(-c2ccnc3ccc(-c4c[nH]nc4-c4cccc(C)n4)cc23)cn1 [Compound 865, N-methyl-2-[4-[6-[3-(6-methyl-2-pyridyl)-1H-pyrazol-4-yl]-4-quinolyl]pyrazol-1-yl]ethanamine]",0.0398 to 0.316 nM,25.1 to 158 nM
"Cc1cccc(-c2[nH]cnc2-c2ccc3ncc(-c4cnn(C5CNC5)c4)cc3c2)n1 [Compound 434, 3-[1-(azetidin-3-yl)pyrazol-4-yl]-6-[5-(6-methyl-2-pyridyl)-1H-imidazol-4-yl]quinoline]",< 0.0316 nM,25.1 to 158 nM
"Cc1cccc(-c2[nH]cnc2-c2ccc3ncc(N4CC(N)C4)cc3c2)n1 [Compound 460, 1-[6-[5-(6-methyl-2-pyridyl)-1H-imidazol-4-yl]-3-quinolyl]azetidin-3-amine]",0.0398 to 0.316 nM,25.1 to 158 nM
"Cc1cccc(-c2[nH]cnc2-c2ccc3ncc(-c4cnc(C(=O)O[C@H]5CCNC5)nc4)cc3c2)n1 [Compound 1072, [(3S)-pyrrolidin-3-yl] 5-[6-[5-(6-methyl-2-pyridyl)-1H-imidazol-4-yl]-3-quinolyl]pyrimidine-2-carboxylate]",0.0398 to 0.316 nM,200 to 1260 nM
"Cc1cccc(-c2[nH]cnc2-c2ccc3ncc(-c4ncc(C(=O)O)cn4)cc3c2)n1 [Compound 1140, 2-[6-[5-(6-methyl-2-pyridyl)-1H-imidazol-4-yl]-3-quinolyl]pyrimidine-5-carboxylic acid]",0.0398 to 0.316 nM,200 to 1260 nM
"Cc1cccc(-c2n[nH]cc2-c2ccc3ncc(-c4ccc(C5CCCN(C)C5)cc4)cc3n2)n1 (stereo not shown) [Compound 552, 7-[4-(1-methyl-3-piperidyl)phenyl]-2-[3-(6-methyl-2-pyridyl)-1H-pyrazol-4-yl]-1,5-naphthyridine]",< 0.0316 nM,200 to 1260 nM

# Further lines, with some results ahead:
Ki [1],SMILES,IC50 [2]
< 0.0316 nM,"Cc1cccc(-c2[nH]cnc2-c2ccc3ncc(-c4nc(C(=O)OCC5CNC5)cs4)cc3c2)n1 [Compound 746, azetidin-3-ylmethyl 2-[6-[5-(6-methyl-2-pyridyl)-1H-imidazol-4-yl]-3-quinolyl]thiazole-4-carboxylate]",25.1 to 158 nM
0.0398 to 0.316 nM,"Cc1cccc(-c2[nH]cnc2-c2ccc3ncc(N(C)CC4CNC4)cc3c2)n1 [Compound 6, N-(azetidin-3-ylmethyl)-N-methyl-6-[5-(6-methyl-2-pyridyl)-1H-imidazol-4-yl]quinolin-3-amine]",25.1 to 158 nM
0.398 to 3.16 nM,"Cc1cccc(-c2[nH]cnc2-c2ccc3ncc(C(=O)O[C@@H]4CCCNC4)cc3c2)n1 [Compound 781, [(3R)-3-piperidyl] 6-[5-(6-methyl-2-pyridyl)-1H-imidazol-4-yl]quinoline-3-carboxylate]",25.1 to 158 nM
0.0398 to 0.316 nM,"Cc1cccc(-c2[nH]cnc2-c2ccc3ncc(NC4CCC5(CC4)CNC5)cc3c2)n1 [Compound 14, N-(2-azaspiro[3.5]nonan-7-yl)-6-[5-(6-methyl-2-pyridyl)-1H-imidazol-4-yl]quinolin-3-amine]",200 to 1260 nM
0.0398 to 0.316 nM,"Cc1nc(-c2n[nH]cc2-c2ccc3ncc(NCCN4CCN(C(C)C)CC4)cc3n2)ccc1F [Compound 43, 6-[3-(5-fluoro-6-methyl-2-pyridyl)-1H-pyrazol-4-yl]-N-[2-(4-isopropylpiperazin-1-yl)ethyl]-1,5-naphthyridin-3-amine]",25.1 to 158 nM
< 0.0316 nM,"Cc1cccc(-c2[nH]cnc2-c2ccc3ncc(-c4ncc(C(=O)OCCN5CCNCC5)cn4)cc3c2)n1 [Compound 1125, 2-piperazin-1-ylethyl 2-[6-[5-(6-methyl-2-pyridyl)-1H-imidazol-4-yl]-3-quinolyl]pyrimidine-5-carboxylate]",25.1 to 158 nM
< 0.0316 nM,"Cc1cccc(-c2[nH]cnc2-c2ccc3ncc(C4=CCC(NCC5CCOC5=O)CC4)cc3c2)n1 (stereo not shown) [Compound 456, 3-[[[4-[6-[5-(6-methyl-2-pyridyl)-1H-imidazol-4-yl]-3-quinolyl]cyclohex-3-en-1-yl]amino]methyl]tetrahydrofuran-2-one]",< 20 nM
0.398 to 3.16 nM,"Cc1cccc(-c2[nH]cnc2-c2ccc3ncc(-c4cnc(C(=O)OCC5CNC5)nc4)cc3c2)n1 [Compound 1052, azetidin-3-ylmethyl 5-[6-[5-(6-methyl-2-pyridyl)-1H-imidazol-4-yl]-3-quinolyl]pyrimidine-2-carboxylate]",200 to 1260 nM
< 0.0316 nM,"Cc1cccc(-c2n[nH]cc2-c2ccc3ncc(-c4cccnc4)cc3n2)n1 [Compound 595, 2-[3-(6-methyl-2-pyridyl)-1H-pyrazol-4-yl]-7-(3-pyridyl)-1,5-naphthyridine]",< 20 nM
0.0398 to 0.316 nM,"Cc1cccc(-c2[nH]cnc2-c2ccc3ncc(NC4CC5(CNC5)C4)cc3c2)n1 [Compound 200, N-(2-azaspiro[3.3]heptan-6-yl)-6-[5-(6-methyl-2-pyridyl)-1H-imidazol-4-yl]quinolin-3-amine]",200 to 1260 nM
0.0398 to 0.316 nM,Cc1cccc(-c2n[nH]cc2-c2ccc3ncc(-c4cn[nH]c4)c(C4CCCN4)c3c2)n1 (stereo not shown) [Compound 356],200 to 1260 nM
0.0398 to 0.316 nM,"Cc1cccc(-c2n[nH]cc2-c2ccc3ncc(-c4cnn5c4CNCC5)cc3n2)n1 [Compound 308, 2-[3-(6-methyl-2-pyridyl)-1H-pyrazol-4-yl]-7-(4,5,6,7-tetrahydropyrazolo[1,5-a]pyrazin-3-yl)-1,5-naphthyridine]",< 20 nM
< 0.0316 nM,"CCc1cccc(-c2n[nH]cc2-c2ccc3ncc(N4CCC(NC)CC4)cc3n2)n1 [Compound 377, 1-[6-[3-(6-ethyl-2-pyridyl)-1H-pyrazol-4-yl]-1,5-naphthyridin-3-yl]-N-methyl-piperidin-4-amine]",25.1 to 158 nM
0.0398 to 0.316 nM,"Cc1cccc(-c2[nH]cnc2-c2ccc3ncc(-c4nc(C(=O)OCCN5C[C@@H](C)N[C@@H](C)C5)cs4)cc3c2)n1 [Compound 1226, 2-[(3R,5S)-3,5-dimethylpiperazin-1-yl]ethyl 2-[6-[5-(6-methyl-2-pyridyl)-1H-imidazol-4-yl]-3-quinolyl]thiazole-4-carboxylate]",25.1 to 158 nM
< 0.0316 nM,"Cc1cccc(-c2n[nH]cc2-c2ccc3ncc(N4CCN(CCN)CC4)cc3n2)n1 [Compound 281, 2-[4-[6-[3-(6-methyl-2-pyridyl)-1H-pyrazol-4-yl]-1,5-naphthyridin-3-yl]piperazin-1-yl]ethanamine]",200 to 1260 nM
0.0398 to 0.316 nM,"Cc1cccc(-c2[nH]cnc2-c2ccc3ncc(-c4nc(C(=O)O[C@@H]5CCNC5)cs4)cc3c2)n1 [Compound 743, [(3R)-pyrrolidin-3-yl]2-[6-[5-(6-methyl-2-pyridyl)-1H-imidazol-4-yl]-3-quinolyl]thiazole-4-carboxylate]",25.1 to 158 nM
< 0.0316 nM,"Cc1nc(-c2n[nH]cc2-c2ccc3ncc(-c4cnn([C@@H]5CCCC[C@H]5N)c4)cc3n2)ccc1F [Compound 490, (1R,2R)-2-(4-(6-(3-(5-fluoro-6-methylpyridin-2-yl)-1H-pyrazol-4-yl)-1,5-naphthyridin-3-yl)-1H-pyrazol-1-yl)cyclohexan-1-amine]",< 20 nM

# Source: patent publication US11590116B2 (THERAVANCE BIOPHARMA R&D IP, LLC, priority 2019, dated 2023)
